Assay results published in publication PMC7509852 (Biochemistry, 2020).

Assays:
Cj1427 [1] = target: T1, Cj1427 (Campylobacter jejuni, UniProt Q0P8I7); experiment: UV-vis loss of […] nm band; assay type: biochemical; conditions: NADH-bound enzyme; 2.0 mM substrate; 50 mM HEPES/KCl pH 7.4, 30 °C
Cj1427 [2] = target: T1, Cj1427; experiment: UV-vis spectrum of bound cofactor; assay type: biochemical; conditions: NAD+-bound enzyme; 2.0 mM substrate; 50 mM HEPES/KCl pH 7.4, 30 °C

T1 sequence (Q0P8I7 whole entry): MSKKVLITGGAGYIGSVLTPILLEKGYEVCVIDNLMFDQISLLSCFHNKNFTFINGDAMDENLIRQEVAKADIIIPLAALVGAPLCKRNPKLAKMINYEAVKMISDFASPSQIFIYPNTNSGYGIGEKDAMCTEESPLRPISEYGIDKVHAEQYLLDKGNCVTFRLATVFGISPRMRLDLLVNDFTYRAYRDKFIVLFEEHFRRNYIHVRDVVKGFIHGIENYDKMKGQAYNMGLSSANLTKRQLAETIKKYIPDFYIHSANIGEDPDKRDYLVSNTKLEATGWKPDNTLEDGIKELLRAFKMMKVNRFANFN

SMILES	UV-vis loss of 350 nm band; ion exchange chromatography (Cj1427 [1])	UV-vis spectrum of bound cofactor (Cj1427 [2])
O=C(O)CCC(=O)C(=O)O [α-ketoglutarate]	initially bound NADH was converted to NAD^+ in the presence of α-ketoglutarate	
O=C(O)CC[C@H](O)C(=O)O [L-2-hydroxyglutarate]		Cj1427 with bound NAD^+ catalyzes the oxidation of L-2-hydroxyglutarate to α-ketoglutarate and NADH
